Assay results taken from the supplement of paper PMC8671470.

Legend:
Conditions in all cases: 72 h
HL-60 [1] = test: cell viability (% survival relative to DMSO control); higher = less cytotoxic
Outline: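 HL-60 cells grown in RPMI 1640 with 10% FBS were rescreened against the full library in 384-well plates, in duplicate, at five tenfold concentrations from 1 to 10,000 nM, alongside DMSO or 100 nM of one of three metabolic inhibitors for 72 h at 37 °C, 5% CO2. Reference wells contained DMSO or 10 μM proteasome inhibitor. Viability was read with CellTiter-Glo and normalised to these reference wells, and where reported, area under the curve was taken from four-parameter log-logistic fits in drc and PharmacoGx.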

HEL = test: cell viability (% survival relative to DMSO control, bortezomib = 0%); higher = less cytotoxic
Outline: (§1)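 Fifteen myeloid leukaemia cell lines (10 AML, 5 CML) were seeded at a density titrated to the linear growth range into 384-well plates pre-printed with compounds at 1, 10, 100, 1000 or 10000 nM in duplicate. Plates were incubated for 72 h at 37 °C with 5% CO2. Viability was then read by CellTiter-Glo luminescence. Each value is percent survival averaged over the duplicates, with vehicle set to 100% and a 10 µM positive control to 0%.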

MOLM-13 = test: as above
Outline: as §1

KCL-22 = test: as above
Outline: as §1

MV4-11 [2] = test: as above
Outline: as §1

BV-173 = test: as above
Outline: as §1

SHI-1 = test: as above
Outline: as §1

THP-1 = test: as above
Outline: as §1

ML-2 = test: as above
Outline: as §1

LAMA-84 = test: as above
Outline: as §1

KG-1 = test: as above
Outline: as §1

HL-60 [3] = test: as above
Outline: as §1

Mono-Mac-6 [4] = test: as above
Outline: as §1

KU-812 [5] = test: as above
Outline: as §1

NOMO-1 [6] = test: as above
Outline: as §1

K-562 [7] = test: as above
Outline: as §1

MV4-11 [8] = system: MV4-11
Outline: (§2)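 The IC50 was read from log-logistic dose–response fits. Fifteen myeloid leukaemia lines were exposed for 72 h at 37 °C with 5% CO2 to five tenfold doses from 1 to 10,000 nM in duplicate. ATP luminescence, normalised to vehicle and to a 10 µM positive control, was fitted with four parameters.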

Mono-Mac-6 [9] = system: Mono-Mac-6
Outline: as §2

KU-812 [10] = system: KU-812
Outline: as §2

NOMO-1 [11] = system: NOMO-1
Outline: as §2

K-562 [12] = system: K-562
Outline: as §2

O=C(/C=C/c1ccc(O)c(O)c1)OCCc1ccccc1 [Caffeic acid phenethyl ester]
cell viability [%], HL-60 [1]
Conditions | 0.001 µM | 0.01 µM | 0.1 µM | 1 µM | 10 µM
co-treatment: AZD3965 100 nM | 98.9 | 99.96 | 104 | 103 | 27.4
co-treatment: DMSO vehicle | 76 | 95.8 | 98.75 | 98.83 | 33.3
co-treatment: GSK2194069 100 nM | 93.3 | 100.7 | 102 | 97.1 | 33.1
co-treatment: pictilisib 100 nM | 101 | 102 | 96.7 | 81.5 | 22.1

cell viability [%]
Conditions | 1 nM | 10 nM | 100 nM | 1000 nM | 10000 nM
BV-173 | 93.2 | 102 | 94.3 | 31.9 | 1.21
HEL | 92.8 | 96.8 | 84.1 | 77.9 | 24.8
HL-60 [3] | 96.3 | 111 | 92.2 | 56.7 | 16.2
K-562 [7] | 90.1 | 94.8 | 97.8 | 95.2 | 48.5
KCL-22 | 87.2 | 108 | 93.3 | 71.9 | 35.8
KG-1 | 97.2 | 102 | 94.7 | 61 | 23.5
KU-812 [5] | 96.1 | 93 | 93.2 | 33.2 | 7.74
LAMA-84 | 105 | 104 | 98.1 | 89.3 | 36.3
ML-2 | 97.8 | 106 | 104 | 61.4 | 2.29
MOLM-13 | 90.7 | 94.9 | 81.9 | 97.2 | 50.8
MV4-11 [2] | 94.5 | 90.6 | 111 | 65 | 0.624
Mono-Mac-6 [4] | 95 | 92.7 | 102 | 79.1 | 39.4
NOMO-1 [6] | 93.6 | 96.3 | 86.1 | 80.8 | 85.5
SHI-1 | 95.7 | 99.5 | 103 | 86.1 | 69
THP-1 | 92.7 | 100 | 91.9 | 86.3 | 51

Conditions | IC50 (cell viability) [µM]
K-562 [12] | > 10
KU-812 [10] | 0.649
MV4-11 [8] | 1.39
Mono-Mac-6 [9] | 3.47
NOMO-1 [11] | > 10

CC(C)CC(=O)N[C@H](C(=O)N[C@H](C(=O)N[C@@H](CC(C)C)[C@@H](O)CC(=O)N[C@@H](C)C(=O)N[C@@H](CC(C)C)[C@@H](O)CC(=O)O)C(C)C)C(C)C [Pepstatin A]
cell viability [%], HL-60 [1]
Conditions | 0.001 µM | 0.01 µM | 0.1 µM | 1 µM | 10 µM
co-treatment: AZD3965 100 nM | 104 | 107 | 103 | 102 | 102
co-treatment: DMSO vehicle | 98.3 | 101 | 98.4 | 98.35 | 99.6
co-treatment: GSK2194069 100 nM | 100 | 108 | 103 | 103 | 99.9
co-treatment: pictilisib 100 nM | 99.8 | 117 | 98.8 | 89.9 | 107

cell viability [%]
Conditions | 1 nM | 10 nM | 100 nM | 1000 nM | 10000 nM
BV-173 | 94.2 | 86.5 | 106 | 101 | 88.4
HEL | 98.8 | 88.3 | 95.8 | 105 | 95.3
HL-60 [3] | 99.7 | 73.7 | 111 | 144 | 84.6
K-562 [7] | 95.1 | 85.5 | 96.9 | 101 | 87.9
KCL-22 | 97.4 | 74.5 | 101 | 101 | 98.7
KG-1 | 99.1 | 77.5 | 96.8 | 90.7 | 93.9
KU-812 [5] | 102 | 101 | 96.8 | 111 | 95.9
LAMA-84 | 92.2 | 87.2 | 103 | 96.2 | 103
ML-2 | 96.5 | 84.5 | 105 | 106 | 91.8
MOLM-13 | 109 | 93.8 | 109 | 126 | 86.5
MV4-11 [2] | 87.7 | 77.9 | 90 | 92.3 | 81.8
Mono-Mac-6 [4] | 101 | 83.7 | 104 | 100 | 101
NOMO-1 [6] | 98.3 | 86.8 | 106 | 104 | 102
SHI-1 | 93 | 87.5 | 111 | 105 | 105
THP-1 | 96.3 | 87.1 | 103 | 96.1 | 97

Conditions | IC50 (cell viability) [µM]
K-562 [12] | > 10
KU-812 [10] | > 10
MV4-11 [8] | > 10
Mono-Mac-6 [9] | > 10
NOMO-1 [11] | > 10

CCc1c(C(=O)C(N)=O)c2c(OCC(=O)O)cccc2n1Cc1ccccc1 [Varespladib]
cell viability [%], HL-60 [1]
Conditions | 0.001 µM | 0.01 µM | 0.1 µM | 1 µM | 10 µM
co-treatment: AZD3965 100 nM | 97.7 | 99.9 | 102 | 100.2 | 97
co-treatment: DMSO vehicle | 101 | 95.7 | 103 | 97.5 | 98.1
co-treatment: GSK2194069 100 nM | 92.6 | 93.5 | 97 | 92.9 | 89.1
co-treatment: pictilisib 100 nM | 103 | 99.9 | 107 | 97.7 | 97.2

cell viability [%]
Conditions | 1 nM | 10 nM | 100 nM | 1000 nM | 10000 nM
BV-173 | 90.6 | 104 | 85.4 | 99.3 | 88.7
HEL | 94.8 | 111 | 99.2 | 109 | 87.6
HL-60 [3] | 98.8 | 101 | 92.8 | 96.2 | 93.2
K-562 [7] | 98.5 | 97.5 | 110 | 92.4 | 99.9
KCL-22 | 91.2 | 107 | 105 | 102 | 96.5
KG-1 | 99.5 | 96.9 | 99.4 | 95.9 | 94
KU-812 [5] | 96.1 | 97.7 | 98.5 | 97.6 | 86.4
LAMA-84 | 95.6 | 100 | 103 | 101 | 81.3
ML-2 | 105 | 105 | 109 | 104 | 89.7
MOLM-13 | 80.7 | 95.3 | 85.8 | 101 | 118
MV4-11 [2] | 88.4 | 109 | 101 | 88.3 | 98.5
Mono-Mac-6 [4] | 99.1 | 101 | 93.7 | 100 | 89
NOMO-1 [6] | 102 | 91.6 | 101 | 115 | 95.2
SHI-1 | 106 | 99 | 106 | 92.9 | 93.4
THP-1 | 103 | 105 | 100 | 97.4 | 96.9

Conditions | IC50 (cell viability) [µM]
K-562 [12] | > 10
KU-812 [10] | > 10
MV4-11 [8] | > 10
Mono-Mac-6 [9] | > 10
NOMO-1 [11] | > 10

N#C/C(=C\c1ccc(O)cc1)C(=O)O [alpha-cyano-4-hydroxycinnamic acid]
cell viability [%], HL-60 [1]
Conditions | 0.001 µM | 0.01 µM | 0.1 µM | 1 µM | 10 µM
co-treatment: AZD3965 100 nM | 99.4 | 101 | 102.35 | 101 | 101
co-treatment: DMSO vehicle | 98.9 | 98.8 | 95.79 | 99.8 | 98.6
co-treatment: GSK2194069 100 nM | 101 | 103 | 98.6 | 97.5 | 95.5
co-treatment: pictilisib 100 nM | 90.3 | 99.16 | 95.5 | 94.7 | 91.3

cell viability [%]
Conditions | 1 nM | 10 nM | 100 nM | 1000 nM | 10000 nM
BV-173 | 96.5 | 103 | 84.2 | 80.1 | 113
HEL | 99.3 | 114 | 118 | 113 | 116
HL-60 [3] | 79.6 | 78.6 | 113 | 99.5 | 83.1
K-562 [7] | 101 | 72.2 | 95.4 | 103 | 91
KCL-22 | 98.3 | 97.6 | 103 | 94 | 92
KG-1 | 101 | 96.7 | 103 | 99.2 | 103
KU-812 [5] | 97.9 | 114 | 89.3 | 87.4 | 105
LAMA-84 | 96.5 | 107 | 96.7 | 101 | 101
ML-2 | 92.4 | 101 | 96.2 | 95.8 | 94.5
MOLM-13 | 97.7 | 99.7 | 104 | 99.1 | 85.2
MV4-11 [2] | 100 | 95.3 | 95.7 | 100 | 101
Mono-Mac-6 [4] | 98.2 | 101 | 103 | 103 | 104
NOMO-1 [6] | 99.5 | 96.2 | 106 | 104 | 97.3
SHI-1 | 99.9 | 97 | 95.1 | 97.3 | 86.6
THP-1 | 95.5 | 98.3 | 98.3 | 87.5 | 93.2

Conditions | IC50 (cell viability) [µM]
K-562 [12] | > 10
KU-812 [10] | > 10
MV4-11 [8] | > 10
Mono-Mac-6 [9] | > 10
NOMO-1 [11] | > 10

Cn1cc(-c2ccncc2)c(-c2ccc(OCc3ccc4ccccc4n3)cc2)n1
cell viability [%]
Conditions | 1 nM | 10 nM | 100 nM | 1000 nM | 10000 nM
BV-173 | 93.5 | 97.7 | 93.6 | 90.2 | 57.3
HEL | 93 | 119 | 96.9 | 99.8 | 59.4
HL-60 [3] | 117 | 92.7 | 103 | 136 | 64.2
K-562 [7] | 99.5 | 109 | 106 | 98.5 | 57.9
KCL-22 | 116 | 96 | 96.4 | 102 | 73.7
KG-1 | 97.7 | 96.7 | 110 | 102 | 87.4
KU-812 [5] | 95.4 | 103 | 93.3 | 92.4 | 43.1
LAMA-84 | 104 | 114 | 98.4 | 95.8 | 60
ML-2 | 101 | 94.6 | 98.3 | 103 | 69.3
MOLM-13 | 123 | 99.5 | 95.9 | 69.4 | 6.76
MV4-11 [2] | 101 | 118 | 91.5 | 76.5 | 7.29
Mono-Mac-6 [4] | 92.7 | 87.4 | 89.5 | 90.5 | 52.3
NOMO-1 [6] | 103 | 98.8 | 97 | 101 | 93.9
SHI-1 | 99 | 104 | 107 | 104 | 93.7
THP-1 | 92.7 | 101 | 100 | 104 | 92

Conditions | IC50 (cell viability) [µM]
K-562 [12] | > 10
KU-812 [10] | 8.42
MV4-11 [8] | 2.09
Mono-Mac-6 [9] | > 10
NOMO-1 [11] | > 10
